Assay results published in patent US10966426B2, “Herbicidal compositions comprising phenylpyrimidines” (BASF SE, priority 2016, dated 2021).

Key:
Format in all cases: in vivo
[1] = test system: Ambrosia elatior; assay: greenhouse pre-emergence treatment, AMBEL; conditions: Ambrosia artemisiifolia, 504 h, 21 DAT, AMBEL
From the text: (§1) The culture containers used were plastic pots containing loamy sand with approximately 3.0% of humus as substrate. The seeds of the test plants were sown separately for each species.
(§2) For the pre-emergence treatment, the active compounds, suspended or emulsified in water, were applied directly after sowing by means of finely distributing nozzles. The containers were irrigated gently to promote germination and growth and subsequently covered with transparent plastic hoods until the plants had rooted. This cover caused uniform germination of the test plants unless this was adversely affected by the active compounds.
(§3) Depending on the species, the plants were kept at 10-25° C. and 20-35° C., respectively.
(§4) The test period extended over 2 to 4 weeks. During this time, the plants were tended and their response to the individual treatments was evaluated.
(§5) Evaluation was carried out using a scale from 0 to 100. 100 means no emergence of the plants, or complete destruction of at least the above-ground parts, and 0 means no damage or normal course of growth. A good herbicidal activity is given at values of at least 70, and very good herbicidal activity is given at values of at least 85.
(§6) The respective stated components A and B, and if appropriate, C were formulated as a 10% by weight strength emulsion concentrate and, with addition of the amount of solvent system, introduced into the spray liquor used for applying the active compound. In the examples, the solvent used was water.
(§7) In the examples below, using the method of S. R. Colby (1967) “Calculating synergistic and antagonistic responses of herbicide combinations”, Weeds 15, p. 22ff., the value E, which is expected if the activity of the individual active compounds is only additive, was calculated. E=X+Y−(X·Y/100) where X=effect in percent using herbicide A at an application rate a; • Y=effect in percent using herbicide B at application rate b; • E=expected effect (in %) of herbicide A+herbicide B at application rates a+b.

[2] = test system: Lolium multiflorum; assay: greenhouse post-emergence treatment, LOLMU; conditions: Lolium multiflorum, sc, 480 h, 20 DAT, LOLMU, read-out: % activity
Description: as §1
(§8) To this end, the test plants were either sown directly, and grown in the same containers, or they were first grown separately as seedlings and transplanted into the test containers a few days prior to treatment.
as §3, §4, §5
(§9) In the examples, the solvent used was water.
(§10) In the examples below, using the method of S. R. Colby (1967) “Calculating synergistic and antagonistic responses of herbicide combinations”, Weeds 15, p. […] E=X+Y−(X·Y/100) where X=effect in percent using herbicide A at an application rate a; • Y=effect in percent using herbicide B at application rate b; • E=expected effect (in %) of herbicide A+herbicide B at application rates a+b.

[3] = test system: Matricaria chamomilla; assay: greenhouse post-emergence treatment, MATCH; conditions: Matricaria chamomilla, sc, 480 h, 20 DAT, MATCH
Description: as §1
(§11) For the post-emergence treatment, the test plants were grown to a plant height of from 3 to 15 cm, depending on the plant habit, and only then treated with the active compounds which had been suspended or emulsified in water. To this end, the test plants were either sown directly, and grown in the same containers, or they were first grown separately as seedlings and transplanted into the test containers a few days prior to treatment.
as §3, §4, §5, §6, §7

[4] = test system: Polygonum convolvulus; assay: greenhouse post-emergence treatment, POLCO; conditions: Fallopia convolvulus, sc, 480 h, 20 DAT, POLCO
Description: as §1, §11, §3, §4, §5, §6, §7

[5] = test system: Bromus sterilis; assay: greenhouse pre-emergence treatment, BROST; conditions: Bromus sterilis, 504 h, 21 DAT, BROST
From the text: as §1, §2, §3, §4, §5, §6, §7

[6] = test system: Avena fatua; assay: greenhouse pre-emergence treatment, AVEFA; conditions: Avena fatua, 504 h, 21 DAT, AVEFA, pendimethalin SC 400 g/l solo 125 gai/ha
From the text: as §1, §2, §3, §4, §5, §6, §7

[7] = test system: Alopecurus myosuroides; assay: greenhouse post-emergence treatment, ALOMY; conditions: Alopecurus myosuroides, 480 h, 20 DAT, ALOMY, pendimethalin SC 400 g/l solo 125 gai/ha
Description: as §1, §8, §3, §4, §5, §9, §10

[8] = test system: Brachiaria decumbens; assay: greenhouse pre-emergence treatment, BRADC; conditions: Urochloa decumbens, 504 h, 21 DAT, BRADC
From the text: as §1, §2, §3, §4, §5, §6, §7

[9] = test system: Setaria viridis; assay: greenhouse post-emergence treatment, SETVI; conditions: Setaria viridis, sc, 480 h, 20 DAT, SETVI, pendimethalin SC 400 g/l solo 250 gai/ha, read-out: % activity
Description: as §1, §8, §3, §4, §5, §9, §10

[10] = test system: Helianthus annuus; assay: greenhouse pre-emergence treatment, HELAN; conditions: Helianthus annuus, 504 h, 21 DAT, HELAN
From the text: as §1, §2, §3, §4, §5, §6, §7

[11] = test system: Bromus sterilis; assay: greenhouse post-emergence treatment, BROST; conditions: Bromus sterilis, sc, 480 h, 20 DAT, BROST
Description: as §1, §8, §3, §4, §5, §9, §10

[12] = test system: Avena fatua; assay: greenhouse post-emergence treatment, AVEFA; conditions: Avena fatua, sc, 480 h, 20 DAT, AVEFA
Description: as §1, §8, §3, §4, §5, §9, §10

[13] = test system: Apera spica-venti; assay: greenhouse post-emergence treatment, APESV; conditions: solo, SC 400 g/l, APESV, 250 gai/ha, 20 DAT
Description: as §1, §11, §3, §4, §5, §6, §7

[14] = test system: Stellaria media; assay: greenhouse post-emergence treatment, STEME; conditions: Stellaria media, sc, 480 h, 20 DAT, STEME, pendimethalin SC 400 g/l solo 500 gai/ha
Description: as §1, §11, §3, §4, §5, §6, §7

[15] = test system: Digitaria sanguinalis; assay: greenhouse post-emergence treatment, DIGSA; conditions: Digitaria sanguinalis, sc, 480 h, 20 DAT, DIGSA, pendimethalin SC 400 g/l solo 125 gai/ha, read-out: % activity
Description: as §1, §8, §3, §4, §5, §9, §10

[16] = pendimethalin SC 400 g/l solo 250 gai/ha
[17] = pendimethalin SC 400 g/l solo 1000 gai/ha
[18] = pendimethalin SC 400 g/l solo 125 gai/ha
[19] = pendimethalin SC 400 g/l solo 500 gai/ha
[20] = pendimethalin SC 400 g/l solo 125 gai/ha, read-out: % activity

CCC(CC)Nc1c([N+](=O)[O-])cc(C)c(C)c1[N+](=O)[O-] [pendimethalin]
percent weed control (herbicidal activity, 0-100 scale) at 250 g/ha [1, 16]: 0% | percent weed control (herbicidal activity, 0-100 scale) at 1000 g/ha [1, 17]: 0% | inhibition at 125 g/ha [2, 18]: 10% | inhibition at 250 g/ha [2, 16]: 20% | inhibition at 500 g/ha [3, 19]: 0% | inhibition at 1000 g/ha [3, 17]: 0% | inhibition at 125 g/ha [4, 18]: 40% | inhibition at 500 g/ha [4, 19]: 60% | inhibition at 250 g/ha ([5]; pendimethalin SC 400 g/l solo 250 gai/ha, read-out: % activity): 0% | inhibition at 500 g/ha [5, 19]: 0% | inhibition at 1000 g/ha [5, 17]: 10% | inhibition at 125 g/ha [6]: 0% | inhibition at 125 g/ha [7]: 20% | % herbicidal activity (weed control, 0-100 scale) at 250 g/ha [8, 16]: 0% | % herbicidal activity (weed control, 0-100 scale) at 500 g/ha [8, 19]: 0% | % herbicidal activity (weed control, 0-100 scale) at 1000 g/ha [8, 17]: 0% | inhibition at 250 g/ha [9]: 50% | inhibition at 100 g/ha ([10]; pendimethalin SC 400 g/l solo 100 gai/ha): 10% | inhibition at 125 g/ha [10, 20]: 0% | inhibition at 250 g/ha [10, 16]: 0% | inhibition at 500 g/ha [10, 19]: 10% | inhibition at 125 g/ha [11, 18]: 0% | inhibition at 250 g/ha [11, 16]: 0% | inhibition at 500 g/ha [11, 19]: 0% | inhibition at 1000 g/ha [11, 17]: 0% | inhibition at 125 g/ha [12, 20]: 0% | inhibition at 250 g/ha [12, 16]: 0% | inhibition at 500 g/ha [12, 19]: 0% | inhibition at 1000 g/ha [12, 17]: 0% | % activity [13]: 0% | inhibition at 500 g/ha [14]: 70% | inhibition at 125 g/ha [15]: 45%
